# Test results from US10750743B2, “Pyridazinone herbicides” (E.I. DU PONT DE NEMOURS AND COMPANY, priority 2015, dated 2020).
# Columns and labels:
# kochia (Kochia scoparia) = experiment: Test A preemergence, directed soil spray, visual injury rating; type: in vivo; details: Bassia scoparia, pre-emergence, 240 h, 0 is no effect, 100 is complete control, read-out: Plant response rating (0 to 100 scale), Kochia; for pest or weed control at 125 g/ha: 125 g ai/ha; for pest or weed control at 500 g/ha: 500 g ai/ha; for pest or weed control at 31 g/ha: 31 g ai/ha
# How it was run: (§1)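 Seeds sown in a loam soil–sand blend received a directed preemergence soil spray of test chemical in a non-phytotoxic solvent mixture with surfactant. Postemergence plants were sprayed at 2 to 10 cm, one- to two-leaf stage. After approximately 10 d in greenhouse, injury was visually rated 0 (no effect) to 100 (complete control) against untreated controls.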
# [1] = system: pigweed (Amaranthus retroflexus); experiment: as above; type: in vivo; details: Amaranthus retroflexus, pre-emergence, 240 h, 0 is no effect, 100 is complete control, read-out: Plant response rating (0 to 100 scale), Pigweed; for pest or weed control at 125 g/ha: 125 g ai/ha; for pest or weed control at 500 g/ha: 500 g ai/ha; for pest or weed control at 31 g/ha: 31 g ai/ha
# How it was run: as §1
smiles,measurement,setting,value
"CC(=O)Oc1c(C)nn(C)c(=O)c1-c1cccc2cc(C)oc12 [Compound 13, 5-(acetyloxy)-2,6-dimethyl-4-(2-methyl-7-benzofuranyl)-3 (2H)-pyridazinone]",pest or weed control at 125 g/ha,kochia (Kochia scoparia),0%
same,pest or weed control at 500 g/ha,kochia (Kochia scoparia),100%
same,pest or weed control at 125 g/ha,[1],40%
same,pest or weed control at 500 g/ha,[1],100%
"Cn1nc(Cl)c(O)c(-c2nccc3ccccc23)c1=O [Compound 67, 6-chloro-5-hydroxy-4-(1-isoquinolinyl)-2-methyl-3(2H)-pyridazinone]",pest or weed control at 31 g/ha,kochia (Kochia scoparia),0%
same,pest or weed control at 125 g/ha,kochia (Kochia scoparia),0%
same,pest or weed control at 31 g/ha,[1],10%
same,pest or weed control at 125 g/ha,[1],20%
"Cc1cc2cccc(-c3c(O)c(C)nn(C)c3=O)c2o1 [Compound 12, 5-hydroxy-2,6-dimethyl-4-(2-methyl-7-benzofuranyl)-3(2H)-pyridazinone]",pest or weed control at 125 g/ha,kochia (Kochia scoparia),60%
same,pest or weed control at 500 g/ha,kochia (Kochia scoparia),100%
same,pest or weed control at 125 g/ha,[1],60%
same,pest or weed control at 500 g/ha,[1],100%
"Cc1cc2ccc(C)c(-c3c(O)c(C)nn(C)c3=O)c2o1 [Compound 10, 4-(2,6-dimethyl-7-benzofuranyl)-5-hydroxy-2,6-dimethyl-3(2H)-pyridazinone]",pest or weed control at 125 g/ha,kochia (Kochia scoparia),100%
same,pest or weed control at 500 g/ha,kochia (Kochia scoparia),100%
same,pest or weed control at 125 g/ha,[1],100%
same,pest or weed control at 500 g/ha,[1],100%
same,melting point,,194 to 199 °C
"COc1c(C)nn(C)c(=O)c1-c1ccc(F)c2ccoc12 [Compound 69, 4-(4-fluoro-7-benzofuranyl)-5-methoxy-2,6-dimethyl-3(2H)-pyridazinone]",pest or weed control at 31 g/ha,kochia (Kochia scoparia),0%
same,pest or weed control at 125 g/ha,kochia (Kochia scoparia),0%
same,pest or weed control at 31 g/ha,[1],0%
same,pest or weed control at 125 g/ha,[1],0%
"Cc1ccc2sccc2c1-c1c(O)c(C)nn(C)c1=O [Compound 29, 5-hydroxy-2,6-dimethyl-4-(5-methylbenzo[b]thien-4-yl)-3(2H)-pyridazinone]",pest or weed control at 125 g/ha,kochia (Kochia scoparia),20%
same,pest or weed control at 500 g/ha,kochia (Kochia scoparia),90%
same,pest or weed control at 125 g/ha,[1],40%
same,pest or weed control at 500 g/ha,[1],100%
"Cc1nn(C)c(=O)c(-c2ccc(F)c3ccoc23)c1O [Compound 68, 4-(4-fluoro-7-benzofuranyl)-5-hydroxy-2,6-dimethyl-3(2H)-pyridazinone]",pest or weed control at 31 g/ha,kochia (Kochia scoparia),30%
same,pest or weed control at 125 g/ha,kochia (Kochia scoparia),60%
same,pest or weed control at 31 g/ha,[1],0%
same,pest or weed control at 125 g/ha,[1],80%
"CCOC(=O)Oc1c(C)nn(C)c(=O)c1-c1c(C)ccc2sccc12 [Compound 30, 1,6-dihydro-1,3-dimethyl-5-(5-methylbenzo[b]thien-4-yl)-6-oxo-4-pyridazinyl ethyl carbonate]",pest or weed control at 125 g/ha,kochia (Kochia scoparia),10%
same,pest or weed control at 500 g/ha,kochia (Kochia scoparia),80%
same,pest or weed control at 125 g/ha,[1],90%
same,pest or weed control at 500 g/ha,[1],100%
same,melting point,,103 to 107 °C
"CC(=O)Oc1c(C)nn(C)c(=O)c1-c1c(C)ccc2cc(C)oc12 [Compound 11, 5-(acetyloxy)-4-(2,6-dimethyl-7-benzofuranyl)-2,6-dimethyl-3(2H)-pyridazinone]",pest or weed control at 125 g/ha,kochia (Kochia scoparia),90%
same,pest or weed control at 500 g/ha,kochia (Kochia scoparia),100%
same,pest or weed control at 125 g/ha,[1],100%
same,pest or weed control at 500 g/ha,[1],100%
same,melting point,,93 to 96 °C
"Cc1nn(C)c(=O)c(-c2cccc3snc(C)c23)c1O [Compound 25, 5-hydroxy-2,6-dimethyl-4-(3-methyl-1,2-benzisothiazol-4-yl)-3 (2H)-pyridazinone]",pest or weed control at 125 g/ha,kochia (Kochia scoparia),100%
same,pest or weed control at 500 g/ha,kochia (Kochia scoparia),100%
same,pest or weed control at 125 g/ha,[1],80%
same,pest or weed control at 500 g/ha,[1],100%
same,melting point,,115 to 118 °C
